Measured values published in ChEMBL document CHEMBL1138904, “2-Aryl(pyrrolidin-4-yl)acetic acids are potent agonists of sphingosine-1-phosphate (S1P) receptors” (Bioorg Med Chem Lett, 2006).
Calls of active or inactive are those of the source. The calls are words filed in the database; no cut-off is given here.

What was measured:
[1] = Oral bioavailability in Sprague-Dawley rat at 1 mg/kg, iv and 2 mg/kg, po; assay type: ADME, organism-based; conditions: in vivo
[2] = biological target: Sphingosine 1-phosphate receptor 1 (Homo sapiens, UniProt P21453); experiment: Displacement of [33P]S1P from human S1P1 receptor expressed in CHO cells; assay type: cell-based
[3] = biological target: Sphingosine 1-phosphate receptor 2 (Homo sapiens, UniProt O95136); experiment: Displacement of [33P]S1P from human S1P2 receptor expressed in CHO cells; assay type: cell-based
[4] = biological target: Sphingosine 1-phosphate receptor 3 (Homo sapiens, UniProt Q99500); experiment: Displacement of [33P]S1P from human S1P3 receptor expressed in CHO cells; assay type: cell-based
[5] = biological target: T1, Sphingosine 1-phosphate receptor 4 (Homo sapiens, UniProt O95977); experiment: Displacement of [33P]S1P from human S1P4 receptor expressed in CHO cells; assay type: cell-based
T1 sequence (O95977 whole entry): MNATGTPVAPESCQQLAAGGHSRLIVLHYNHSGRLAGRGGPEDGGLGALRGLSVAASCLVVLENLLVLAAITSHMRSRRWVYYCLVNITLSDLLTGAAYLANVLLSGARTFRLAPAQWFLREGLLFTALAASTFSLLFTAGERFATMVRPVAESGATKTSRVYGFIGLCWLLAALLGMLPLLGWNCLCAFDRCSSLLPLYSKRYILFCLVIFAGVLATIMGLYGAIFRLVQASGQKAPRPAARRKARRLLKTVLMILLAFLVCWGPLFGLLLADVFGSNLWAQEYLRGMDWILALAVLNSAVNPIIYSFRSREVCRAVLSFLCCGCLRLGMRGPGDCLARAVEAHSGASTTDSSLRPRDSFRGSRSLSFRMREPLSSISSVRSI

[6] = biological target: Sphingosine 1-phosphate receptor 5 (Homo sapiens, UniProt Q9H228); experiment: Displacement of [33P]S1P from human S1P5 receptor expressed in CHO cells; assay type: cell-based
PBL [7] = experiment: Reduction in peripheral blood lymphocyte count in mouse at 10 mg/kg, po relative to control; assay type: functional; parameters: scale not given: the % may be the effect or the level left
PBL [8] = experiment: […] of peripheral blood lymphocyte in orally dosed mouse; assay type: functional, organism-based
PBL [9] = experiment: […] of peripheral blood lymphocyte in mouse at 1 mg/kg, po; assay type: functional, organism-based; parameters: dose 1 mg/kg
[10] = Clearance in Sprague-Dawley rat at 1 mg/kg, iv and 2 mg/kg, po; assay type: ADME, organism-based; conditions: in vivo
[11] = Volume of distribution in Sprague-Dawley rat at 1 mg/kg, iv and 2 mg/kg, po; assay type: ADME, organism-based; conditions: in vivo, read-out: Vss
[12] = Half life in Sprague-Dawley rat at 1 mg/kg, iv and 2 mg/kg, po; assay type: ADME, organism-based; conditions: in vivo

Chain of Sphingosine 1-phosphate receptor 1 (P21453 whole entry): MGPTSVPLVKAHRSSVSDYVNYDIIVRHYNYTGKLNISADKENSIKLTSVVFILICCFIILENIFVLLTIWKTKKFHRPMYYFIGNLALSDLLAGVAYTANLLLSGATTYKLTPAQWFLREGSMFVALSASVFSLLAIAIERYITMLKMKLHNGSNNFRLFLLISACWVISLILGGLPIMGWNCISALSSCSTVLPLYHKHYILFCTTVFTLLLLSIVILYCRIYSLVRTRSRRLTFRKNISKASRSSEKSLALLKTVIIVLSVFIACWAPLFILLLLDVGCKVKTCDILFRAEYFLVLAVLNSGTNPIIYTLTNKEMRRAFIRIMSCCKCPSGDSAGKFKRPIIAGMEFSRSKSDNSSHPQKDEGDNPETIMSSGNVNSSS
Chain of Sphingosine 1-phosphate receptor 3 (Q99500 whole entry): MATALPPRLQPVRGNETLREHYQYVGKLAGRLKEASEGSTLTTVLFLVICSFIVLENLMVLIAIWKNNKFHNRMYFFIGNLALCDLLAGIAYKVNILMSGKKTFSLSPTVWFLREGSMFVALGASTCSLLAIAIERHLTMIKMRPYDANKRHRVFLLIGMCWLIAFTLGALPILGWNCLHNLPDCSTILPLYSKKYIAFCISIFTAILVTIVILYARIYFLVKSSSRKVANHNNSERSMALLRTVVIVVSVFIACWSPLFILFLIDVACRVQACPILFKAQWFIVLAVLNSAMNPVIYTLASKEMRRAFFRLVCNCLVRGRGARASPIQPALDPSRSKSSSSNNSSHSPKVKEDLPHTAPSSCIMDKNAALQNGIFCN
Chain of Sphingosine 1-phosphate receptor 2 (O95136 whole entry): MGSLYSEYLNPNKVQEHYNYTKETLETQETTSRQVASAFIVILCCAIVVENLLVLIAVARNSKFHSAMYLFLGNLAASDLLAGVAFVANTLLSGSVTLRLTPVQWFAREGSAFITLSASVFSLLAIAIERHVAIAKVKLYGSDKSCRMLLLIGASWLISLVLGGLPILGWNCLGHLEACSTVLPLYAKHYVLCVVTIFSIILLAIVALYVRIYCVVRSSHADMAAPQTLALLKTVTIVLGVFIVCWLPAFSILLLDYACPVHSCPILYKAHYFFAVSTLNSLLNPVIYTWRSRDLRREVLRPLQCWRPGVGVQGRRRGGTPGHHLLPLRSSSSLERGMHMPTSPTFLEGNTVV
Chain of Sphingosine 1-phosphate receptor 5 (Q9H228 whole entry): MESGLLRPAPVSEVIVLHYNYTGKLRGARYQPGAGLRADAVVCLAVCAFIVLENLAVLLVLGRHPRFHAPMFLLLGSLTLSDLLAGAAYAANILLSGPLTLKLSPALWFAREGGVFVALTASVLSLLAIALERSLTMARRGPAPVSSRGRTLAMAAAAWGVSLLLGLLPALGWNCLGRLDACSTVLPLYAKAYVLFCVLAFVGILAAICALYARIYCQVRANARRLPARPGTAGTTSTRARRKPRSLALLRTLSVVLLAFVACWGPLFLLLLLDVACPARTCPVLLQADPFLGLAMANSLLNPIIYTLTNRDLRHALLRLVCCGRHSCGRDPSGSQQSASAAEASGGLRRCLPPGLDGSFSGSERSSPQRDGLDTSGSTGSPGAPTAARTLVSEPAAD

bioavailability [1]	IC50 [2]	IC50 [3]	IC50 [4]	IC50 [5]	IC50 [6]	clearance [10]	Vd [11]	half-life [12]	IC50 ([3]; cho)	Compound	Activity (PBL [7])	Activity (PBL [8])	Activity (PBL [9])
67%										CC(C)Cc1ccc(-c2nc(-c3ccc(CN4CC(C(=O)O)C4)cc3)no2)cc1			
	0.0022 µM	> 10 µM	2.1 µM	0.39 µM	0.39 µM					O=C(O)CC1CNC(c2ccc(OCc3cc(-c4ccccc4)c(C(F)(F)F)s3)cc2)C1 (stereo not given)	39%		
	0.025 µM	> 10 µM	4.8 µM	2.7 µM	0.13 µM					O=C(O)C1CNC(c2ccc(OCc3cc(-c4ccccc4)c(C(F)(F)F)s3)cc2)C1 (stereo not given)			
23%	0.002 µM	> 10 µM	0.46 µM	0.11 µM	0.021 µM	3.5 mL/min/kg	2.2 L/kg	4.4 h		O=C(O)C[C@@H]1CN[C@@H](c2ccc(-c3noc(-c4ccc(C5CCC(F)(F)CC5)cc4)n3)cc2)C1 (relative stereo)		Active	Active
	0.001 µM	> 10 µM	> 1 µM	0.12 µM	0.068 µM					O=C(O)C[C@@H]1CN[C@@H](c2ccc(-c3noc(-c4ccc(C5CCCC5)cc4)n3)cc2)C1 (relative stereo)			
	0.0014 µM	> 10 µM	3.1 µM	0.11 µM	0.057 µM					O=C(O)C[C@@H]1CN[C@@H](c2ccc(-c3noc(-c4ccc(C5CCCCC5)cc4)n3)cc2)C1 (relative stereo)		Active	
27%	0.0079 µM	> 10 µM	1.5 µM	0.16 µM	0.14 µM	3.4 mL/min/kg	2.9 L/kg	10.9 h		CC(C)Cc1ccc(-c2nc(-c3ccc([C@H]4C[C@@H](CC(=O)O)CN4)cc3)no2)cc1 (relative stereo)		Active	
79%	0.0057 µM	> 10 µM	> 1 µM	0.15 µM	0.3 µM	7.4 mL/min/kg	6.6 L/kg	10.7 h		CC(C)Cc1ccc(-c2nc(-c3ccc([C@H]4C[C@H](CC(=O)O)CN4)cc3)no2)cc1 (relative stereo)			
	0.0055 µM	> 10 µM	> 1 µM	0.23 µM	0.05 µM					O=C(O)C[C@@H]1CN[C@@H](c2ccc(-c3noc(-c4ccc(CCC(F)(F)F)cc4)n3)cc2)C1 (relative stereo)			
	0.0012 µM		0.69 µM	0.032 µM	0.0051 µM				> 10 µM	O=C(O)C[C@@H]1CN[C@@H](c2ccc(-c3noc(-c4ccc([C@@H]5CCC(F)(F)C5)cc4)n3)cc2)C1 (stereo in doubt; 22f) [listing 1 of 2 here]			
										O=C(O)C[C@@H]1CN[C@@H](c2ccc(-c3noc(-c4ccc([C@@H]5CCC(F)(F)C5)cc4)n3)cc2)C1 (stereo in doubt; 22f) [listing 2 of 2 here]			Active
36%	0.0008 µM	> 10 µM	1.1 µM	0.8 µM	0.011 µM	2.1 mL/min/kg	1.3 L/kg	5.6 h		O=C(O)C[C@@H]1CN[C@@H](c2ccc(-c3noc(-c4ccc([C@@H]5CCC(F)(F)C5)cc4)n3)cc2)C1 (stereo in doubt; 22g) [listing 1 of 2 here]			
										O=C(O)C[C@@H]1CN[C@@H](c2ccc(-c3noc(-c4ccc([C@@H]5CCC(F)(F)C5)cc4)n3)cc2)C1 (stereo in doubt; 22g) [listing 2 of 2 here]		Active	Active
